The record followed here is US20260125397A1, “MK2 DEGRADERS AND USES THEREOF” (Kymera Therapeutics, Inc., priority 2023, published 2026).

Molecules are shown by their SMILES.

The target of assay [1] is T1, MK2 (Homo sapiens, UniProt P49137). Briefly: MK2 degradation in human THP-1 monocytic cells (MSD, 24 h). It is filed as cell-based. More on the design: endogenous in cells. The conditions noted are these: THP-1 cells; for DC50: read-out: MK2 MSD THP-1 degradation 24 h GMean External Abs DC50. Here is the method: The human monocytic cancer cell line THP-1 (ATCC (TIB-202)) was cultured in 96 well plates (Coming 3894) at a density of 200,000 cells per well in 100 microlitres in complete growth medium of RPMI 1640 (Gibco) pus 10% fetal Bovine Serum (Coming) and Penicillin/Streptomycin (SolarBio) at 37 degrees Celsius and 5% CO2. A serial dilution of each compound (usually 3 to 5 fold serial dilutions up to 10 separate concentration points) was added to individual wells from a 10 millimolar stock solution, at a background concentration of 0.1% DMSO and the cells were shaken at 600 rpm for 5 minutes and then were cultured for 24 hours at 37 degrees Celsius and 5% carbon dioxide. Separately, a custom MSD (MesoScaleDiscovery, L15XA-3) plate for detection of human MK2 was prepared by coating the plate with the commercial AbCarn ab247272 reagent in 1× Phosphate Buffered Saline at 40 microlitres per well and incubated at 4 degrees Celsius overnight. The next day, the MSD plate was washed with 150 microlitres of Tween buffered saline, blocked with MSD blocking buffer (3% BlockerA from MSD), and washed again.
T1 sequence (P49137 whole entry): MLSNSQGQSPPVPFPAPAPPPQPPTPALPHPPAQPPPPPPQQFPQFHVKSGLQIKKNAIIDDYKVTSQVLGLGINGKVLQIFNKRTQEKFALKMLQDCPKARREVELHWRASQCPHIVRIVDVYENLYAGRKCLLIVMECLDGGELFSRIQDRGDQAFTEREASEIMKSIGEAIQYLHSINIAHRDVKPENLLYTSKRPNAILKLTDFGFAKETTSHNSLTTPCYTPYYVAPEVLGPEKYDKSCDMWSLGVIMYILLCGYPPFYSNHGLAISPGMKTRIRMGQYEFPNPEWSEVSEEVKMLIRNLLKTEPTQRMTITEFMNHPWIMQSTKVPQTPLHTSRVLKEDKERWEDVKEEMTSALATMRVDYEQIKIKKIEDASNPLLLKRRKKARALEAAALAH
(§1) The cell plate was centrifuged at 3,200 g for 5 minutes and the supernatant was discarded and 100 microlitres of RIPA lysis buffer (containing proteinase inhibitors, Boston BioProducts BP-115D) was added and the plate was sealed and shaken on ice for 20 minutes. The plate was centrifuged as before and 70 microlitres of sample lysate was added to the MSD plates and they were shaken at room temperature for I hour at 600 rpm. The MSD plate was washed 3 times as before and then the primary MK2 detection antibody (Santa Cruz sc-100393) was added at a final concentration of 1 microgram per ml at 25 microlitres per well and shaken at room temperature for 1 hour at 600 rpm.
(§2) After 3 more washes, the secondary detection antibody (SULFO-Tag anti rabbit antibody R32AB-5) was added at a final concentration of 1 microgram per ml at 25 microlitres per well and shaken at room temperature for 1 hour at 600 rpm. After 3 more washes, the 1X MSD (diluted from 5X concentrate with water) reading buffer was added at 150 microlitres per well and read on the MSD instrument Meso Sector S 600.
The inhibition/degradation curves and DC50 values were plotted and calculated using XL Fit (version v5.3.1.3) using equation 201 and a 4 parameter logistic model whereby fit=(A+((B−A)/(1+((x/C)D))) where A is the Bottom and B is the Top and C is the IC50and D is the slope and high C is the signal for the DMSO treated cells and Low C is the signal is the signal for the lysis buffer.

For assay [2], the target named is T1, MK2. Briefly: MK2 degradation in human SW1353 cells (MSD, 24 h). It is filed as cell-based. Also on record: endogenous in cells; host or cells: SW-1353 (ATCC HTB-94). Conditions: for Dmax: read-out: MK2 MSD SW 1353 24 h Dmax %; for DC50: read-out: MK2 MSD SW1353 degradation 24 h GMean External Abs DC50. Here is the method:
The human chondrocyte cancer cell line SW-1353 (ATCC(HTB-94)) was cultured in 96 well plates (Coming 3894) at a density of 200,000 cells per well in 100 microlitres in complete growth medium of Leibovitz's L-15 Medium (Gibco) pus 10% fetal Bovine Serum (Coming) and Penicillin/Streptomycin (SolarBio) at 37 degrees Celsius. A serial dilution of each compound (usually 3 to 5 fold serial dilutions up to 10 separate concentration points) was added to individual wells from a 10 millimolar stock solution, at a background concentration of 0.10% DMSO and the cells were shaken at 600 rpm for 5 minutes and then were cultured for 24 hours at 37 degrees Celsius. Separately, a custom MSD (MesoScaleDiscovery, L15XA-3) plate for detection of human MK2 was prepared by coating the plate with the commercial AbCam ab247272 reagent in 1× Phosphate Buffered Saline at 40 microlitres per well and incubated at 4 degrees Celsius overnight. The next day, the MSD plate was washed with 150 microlitres of Tween buffered saline, blocked with MSD blocking buffer (3% Blocker A from MSD), and washed again.
as §1, with “for 1” for “for I”
as §2
The inhibition/degradation curves and DC50 values were plotted and calculated using XL Fit (version v5.3.1.3) using equation 201 and a 4 parameter logistic model whereby fit=(A+((B−A)/(1+((x/C)D))) where A is the Bottom and B is the Top and C is the IC50 and D is the slope and high C is the signal for the DMSO treated cells and Low C is the signal is the signal for the lysis buffer.

Broadly, the Dmax is the greatest extent of degradation seen. As usually defined, the DC50 is the midpoint of the concentration-degradation curve. For `C[C@@H]1CNc2c(sc3ccc4nc(N5CCN(CC6CCC7(CC6)CN(c6ccc(NC8CCC(=O)NC8=O)cc6F)C7)CC5)ccc4c23)C(=O)N1` (stereo partly drawn) [I-20], on MK2 [1], the Dmax is above 75% and the DC50 was in the range of 1 to 10 nM. Besides, at MK2 [2], the maximal degradation (Dmax) was above 75% and the half-maximal degradation concentration (DC50) fell in the range of 1 to 10 nM.
Take `C[C@@H]1CNc2c(sc3ccc4nc(N5CC[C@H](N(C)C6CC7(CCN(c8ccc9c(c8)n(C)c(=O)n9C8CCC(=O)NC8=O)CC7)C6)C(F)(F)C5)ccc4c23)C(=O)N1` (stereo partly drawn) [I-21]: at MK2 [1], the maximal degradation (Dmax) was above 75% and the DC50 was below 1 nM. Besides, at MK2 [2], the Dmax was above 75% and the DC50 was below 1 nM.
As to `Cn1c(=O)n(C2CCC(=O)NC2=O)c2ccc(N3CC(CN4CCN(c5ccc(-c6nccc(-c7cc8c([nH]7)C(C)(C)CNC8=O)n6)cc5)CC4)C3)cc21` (stereo not drawn) [I-22], on MK2 [1], the Dmax is above 75% and the DC50 is below 1 nM. Also, on MK2 [2], the greatest degradation seen (Dmax) is above 75% and the DC50 is below 1 nM.
On to `C[C@@H]1CNc2c(sc3ccc4nc(N5CCN(CC6CCC7(CC6)CN(c6ccc8c(N9CCC(=O)NC9=O)cncc8c6)C7)CC5)ccc4c23)C(=O)N1` [I-23], for which the greatest degradation seen (Dmax) at MK2 [1] and on MK2 [2] was above 75% each time. For the same compound, the half-maximal degradation concentration (DC50) on MK2 [1] and on MK2 [2] was below 1 nM in each case.
Consider `Cn1c(=O)n(C2CCC(=O)NC2=O)c2cccc(OCCN3CCN(c4ccc(-c5nccc(-c6cc7c([nH]6)C6(CC6)CNC7=O)n5)c(F)c4)CC3)c21` (stereo not drawn) [I-24], for which, at MK2 [1], the Dmax was above 75% and the DC50 is below 1 nM. Further, at MK2 [2], the greatest degradation seen (Dmax) is above 75% and the 50% degradation concentration (DC50) was 1 to 10 nM.
On to `C[C@@H]1CNc2c(sc3ccc4nc(N5CCN(C6CC7(CCN(c8ccc(NC9CCC(=O)NC9=O)cc8F)CC7)C6)CC5)ccc4c23)C(=O)N1` (stereo partly drawn) [I-25], for which, on MK2 [1], the maximal degradation (Dmax) was above 75% and the DC50 is below 1 nM. At MK2 [2], the Dmax was above 75% and the DC50 is 1 to 10 nM.
On to `C[C@@H]1CNc2c(sc3ccc4nc(N5CCN(CCC6CCC7(CC6)CCN(C(=O)c6ccc(Cl)c(N8CCC(=O)NC8=O)c6)CC7)CC5)ccc4c23)C(=O)N1` [I-26], for which the greatest degradation seen (Dmax) on MK2 [1] and on MK2 [2] was above 75% in each case. Besides, the figures for the half-maximal degradation concentration (DC50) on MK2 [1] and on MK2 [2] were below 1 nM and 1 to 10 nM, respectively.
In the case of `C[C@@H]1CNc2c(sc3ccc4nc(N5CCC(N(CC(F)(F)F)C6CC7(CCN(c8ccc9c(c8)n(C)c(=O)n9C8CCC(=O)NC8=O)CC7)C6)CC5)ccc4c23)C(=O)N1` (stereo partly drawn) [I-27], the greatest degradation seen (Dmax) at MK2 [1] and on MK2 [2] was above 75% each time. Besides, the 50% degradation concentration (DC50) was below 1 nM on MK2 [1] and 1 to 10 nM at MK2 [2].
Consider `Cn1c(=O)n(C2CCC(=O)NC2=O)c2ccc(N3CC(CN4CCN(c5ccc(-c6cc(-c7cc8c(o7)C7(CC7)CNC8=O)ccn6)cc5)CC4)C3)cc21` (stereo not drawn) [I-28], for which, at MK2 [1], the Dmax was above 75% and the 50% degradation concentration (DC50) is below 1 nM. At MK2 [2], the maximal degradation (Dmax) is above 75% and the half-maximal degradation concentration (DC50) was below 1 nM.
Take `Cn1c(=O)n(C2CCC(=O)NC2=O)c2ccc(N3CC(CN4CCN(c5ccc(-c6cc(-c7cc8c(o7)C7(CC7)CNC8=O)ncn6)cc5)CC4)C3)cc21` (stereo not drawn) [I-29]: the Dmax on MK2 [1] and at MK2 [2] was above 50% throughout. The DC50 on MK2 [1] and at MK2 [2] was above 100 nM in each case.
As for `Cn1c(=O)n(C2CCC(=O)NC2=O)c2ccc(N3CC(CN4CCN(c5ccc(-c6cc(-c7cc8c([nH]7)C7(CC7)CNC8=O)ncn6)cc5)CC4)C3)cc21` (stereo not drawn) [I-30], the greatest degradation seen (Dmax) at MK2 [1] and on MK2 [2] was 50 to 75% each time. Besides, the half-maximal degradation concentration (DC50) at MK2 [1] and at MK2 [2] was below 1 nM in each case.
On to `O=C1CCN(c2cncc3c(CCN4CCN(c5ccc(-c6nccc(-c7cc8c([nH]7)C7(CCC7)CNC8=O)n6)c(F)c5)CC4)cccc23)C(=O)N1` [I-31], for which, at MK2 [1], the Dmax is above 75% and the DC50 was below 1 nM. At MK2 [2], the Dmax was above 75% and the half-maximal degradation concentration (DC50) is 1 to 10 nM.
Turning to `Cn1c(=O)n(C2CCC(=O)NC2=O)c2cccc(-n3ccc(N4CCN(c5ccc(-c6nccc(-c7cc8c([nH]7)C7(CCCC7)CNC8=O)n6)cc5)CC4)c3)c21` (stereo not drawn) [I-32], at MK2 [1], the Dmax is above 50% and the DC50 is above 100 nM. For the same compound, on MK2 [2], the Dmax was above 50% and the DC50 was above 100 nM.
Regarding `Cn1c(=O)n(C2CCC(=O)NC2=O)c2cccc(N3CCC(N4CCN(c5ccc(-c6nccc(-c7cc8c([nH]7)C7(CCCC7)CNC8=O)n6)cc5)CC4)C3)c21` (stereo not drawn) [I-33], on MK2 [1], the maximal degradation (Dmax) was in the range of 50 to 75% and the DC50 fell in the range of 1 to 10 nM. Moreover, at MK2 [2], the Dmax was in the range of 50 to 75% and the DC50 lay in the range of 1 to 10 nM.
Consider `Cn1c(=O)n(C2CCC(=O)NC2=O)c2ccc(N3CC(CN4CCC(N5CCN(c6nccc(-c7cc8c([nH]7)C7(CC7)CNC8=O)n6)CC5)CC4)C3)cc21` (stereo not drawn) [I-34], for which the maximal degradation (Dmax) at MK2 [1] and on MK2 [2] was above 50% throughout. Besides, the DC50 at MK2 [1] and at MK2 [2] was above 100 nM in each case.
On to `C[C@@H]1CNc2c(sc3ccc4nc(N5CCN(CCC6CC7(CCN(C(=O)c8ccc(Cl)c(N9CCC(=O)NC9=O)c8)CC7)C6)CC5)ccc4c23)C(=O)N1` [I-35], for which, at MK2 [1], the Dmax is above 75% and the DC50 was below 1 nM. Also, at MK2 [2], the Dmax is above 75% and the DC50 was below 1 nM.
Regarding `C[C@@H]1CNc2c(sc3ccc4nc(N5CCC(OC6CCC7(CC6)CN(c6ccc8c(c6)n(C)c(=O)n8C6CCC(=O)NC6=O)C7)CC5)ccc4c23)C(=O)N1` (stereo partly drawn) [I-36], the Dmax on MK2 [1] and at MK2 [2] was above 75% each time. The 50% degradation concentration (DC50) on MK2 [1] and at MK2 [2] was below 1 nM throughout.
As for `Cn1c(=O)n(C2CCC(=O)NC2=O)c2ccc(N3CC(CN4CCN(c5ccc(-c6nccc(-c7cc8c([nH]7)C7(CC7)CNC8=O)n6)cc5C#N)CC4)C3)cc21` (stereo not drawn) [I-37], on MK2 [1], the greatest degradation seen (Dmax) was above 75% and the DC50 was below 1 nM. On MK2 [2], the Dmax is above 75% and the half-maximal degradation concentration (DC50) is below 1 nM.
Turning to `C[C@@H]1CNc2c(sc3ccc4nc(N5CCC(COC6CCN(c7ccc8c(c7)n(C)c(=O)n8C7CCC(=O)NC7=O)CC6)CC5)ccc4c23)C(=O)N1` (stereo partly drawn) [I-38], on MK2 [1], the Dmax was 50 to 75% and the DC50 is below 1 nM. In addition, on MK2 [2], the greatest degradation seen (Dmax) was 50 to 75% and the 50% degradation concentration (DC50) is below 1 nM.
In the case of `C[C@@H]1CNc2c(sc3ccc4nc(N5CCN(C[C@H]6C[C@]7(CCN(c8ccc9c(c8)n(C)c(=O)n9C8CCC(=O)NC8=O)C7)C6)CC5)ccc4c23)C(=O)N1` (stereo partly drawn) [I-39], at MK2 [1], the Dmax is above 50% and the DC50 was below 1 nM. Moreover, at MK2 [2], the greatest degradation seen (Dmax) was above 50% and the DC50 is below 1 nM.
As to `C[C@@H]1CNc2c(sc3ccc4nc(N5CCN(C[C@H]6C[C@@]7(CCN(c8ccc9c(c8)n(C)c(=O)n9C8CCC(=O)NC8=O)C7)C6)CC5)ccc4c23)C(=O)N1` (stereo partly drawn) [I-40], the maximal degradation (Dmax) at MK2 [1] and on MK2 [2] was above 75% each time. Moreover, the DC50 on MK2 [1] and on MK2 [2] was below 1 nM throughout.
